Reference: patent US10266806B2, “Stem cell-derived hepatocytes in co-culture and uses thereof” (Colorado State University Research Foundation, priority 2014, dated 2019)
Entries after “also recorded” stand apart in the source; their conditions may differ. Read-outs that look alike come from different tables or passages of the source.

Columns and labels:
[1] = cited from earlier work
iMPCCs = experiment: Drug toxicity studies: iMPCCs treated for 8 days with multiple doses; details: increasing doses
[2] = tested on: primary human hepatocytes in MPCCs; details: (ref 19); cited from earlier work
iHeps in iMPCCs [3] = experiment: Drug toxicity screening in iMPCCs (albumin, ATP, urea; binary decision and TC50)
[4] = negative number: withdrawn from the market; higher positive numbers: greater DILI concern; cited from earlier work
iHeps in iMPCCs [5] = tested on: iHeps in iMPCCs
CYP1A2 = CYP1A2 induction in iMPCCs (7-ethoxyresorufin O-dealkylation); format: cell-based, human
CYP3A4 = details: human
CYP2C9 [6] = details: rifampin 25 μM or phenobarbital 1 mM, 4 days
CYP2C9 [7] = details: rifampin 25 μM or phenobarbital 1 mM, 4 days; remark: listed apart in the source

COc1ccc2c(c1)[C@]13CCCC[C@@H]1[C@H](C2)N(C)CC3 [Dextromethorphan HBr]
Cmax ([1]; human, in vivo): 0.028 µM
albumin production in iMPCCs (iMPCCs): minimally affected
urea production in iMPCCs (iMPCCs): minimally affected

NNC(=O)c1ccncc1 [Isoniazid]
TC50 in MPCCs Urea [2]: 4.5796 mM
Cmax ([1]; total human plasma concentration): 76.6 µM
TC50 in MPCCs Albumin (iHeps in iMPCCs [3]): 6.6815 mM
DILI Sev (DILI severity scores from the LTKB of the FDA) [4]: 8
toxicity call in iMPCCs / iHeps (iHeps in iMPCCs [5]): toxic
Model predictions iCC (binary decision) (iHeps in iCCs): −
toxicity call in iCCs (iHeps in iCCs): non-toxic

COc1ccc2[nH]c([S+]([O-])Cc3ncc(C)c(OC)c3C)nc2c1 (centres unmarked) [omeprazole]
induction of iMPCC CYP1A2 activity (CYP1A2; 4 days): dose-dependent manner
CYP1A2 fold induction in iMPCCs as % of values in PHH-MPCCs (CYP1A2; same dose and duration): ~70%

CCC1(c2ccccc2)C(=O)NC(=O)NC1=O [phenobarbital]
fold induction of CYP3A4 transcripts in iMPCCs relative to PHH-MPCCs (CYP3A4): 60-130%
induction in CYP3A4 functions in iMPCCs relative to PHH-MPCCs (CYP3A4): 44-79%
CYP2C9 functional activity induction in iMPCCs (CYP2C9 [6]): significant increases; also recorded: induced
CYP2C9 gene expression induction in iMPCCs (CYP2C9 [6]): inducible; also recorded: induced
CYP2C9 induction response in iCCs (CYP2C9 [7]): induced functional activity; also recorded: severely blunted
